# According to patent US20030139361A1, “Drug for gene therapy” (priority 2000, published 2003):
# System: spleen cells derived from PVG rat and mitomycin-treated DA rat
# Assay: Lymphocyte mixed culture test (BrdU incorporation)
# Assay type: cell-based
# Conditions: 4 days culture, BrdU 10 μM for last 16 hours; FIG. 2
# Experimental: To study the immunosuppressive activity of the human IDO protein prepared in Example 10, a lymphocyte mixed culture test was carried out. The spleen cells derived from a non-treated PVG rat and the spleen cells derived from a DA rat treated with 25 μg/ml of mitomycin (SIGMA-Aldrich Corporation) were seeded on a U bottom 96-well plate (NUNC Inc.) at 5×10^4/well and at 8×10^6/well, respectively. The IDO protein was then added and culturing was done for 4 days. Sixteen hours before the finish of culturing 5-bromo-2′deoxyuridine (BrdU) was added at a final concentration of 10 μM. The amount of BrdU incorporated into the intracellular DNA was quantified using a BrdU Labeling & Detection Kit III (Roche Diagnostics Inc.).
substance,measurement,value
"human IDO protein: Recombinant human indoleamine 2,3-dioxygenase protein prepared in Example 10 from E. coli",immunosuppressive activity (amount of BrdU incorporated into intracellular DNA),showed the immunosuppressive activity in a concentration-dependent manner
